Test results as given in article PMC6406907, “A H2AX–CARP-1 Interaction Regulates Apoptosis Signaling Following DNA Damage” (Cancers, 2019).
No end group written: not given here. HA = not defined here

Columns and labels:
[1] = system: HeLa cells; assay: MTT cell viability/growth inhibition, HeLa; type: cell-based, human; settings: for growth inhibition of EGFP-CARP-1 / EGFP-H2AX (1–35)-expressing cells: HeLa sublines vs EGFP-expressing counterparts; for cell viability: 10 μM, HeLa, mean of three independent experiments
Method: (§1) Routine maintenance and culture of MDA-MB-468 (lacking estrogen receptor; ER and having mutant p53) human triple-negative breast cancer (TNBC) cells, human cervical cancer HeLa, human kidney cancer UOK 262, non-small-cell lung cancer H1975, and HCC827 cells was carried out essentially as described previously. Generation and characterization of MDA-MB-468 cells expressing reduced CARP-1 was described previously. The stable sublines were generated by transfecting the MDA-MB-468 and Hela cells with the pcDNA3 vector, pcDNA3-CARP-1 wild-type (WT)-myc-His clone 6.1.2, pcDNA3-CARP-1(Δ600–650)-myc-His, pcDNA3-EGFP, pcDNA3-EGFP-H2AX (1–35), or pcDNA3-EGFP-CARP-1 (636–650) plasmids, followed by selection in the presence of 800 μg/mL neomycin using described methods. The cell lysates from wild-type, untransfected cells, neomycin-resistant pools, or individual sublines were then subjected to MTT-based viability, confocal, immunoprecipitation (IP), and Western blot (WB) analyses as below.
(§2) The cell growth inhibition was assessed using an MTT assay following the established protocols described by us previously.
(§3) Here, we utilized human TNBC MDA-MB-468 and human cervical cancer HeLa cells to conduct an MTT-based dose-response analysis using Adriamycin and CFM compounds. […] Since Adriamycin, CFM-4, and CFM-4.16 have molecular masses of 543.3, 404.9, and 440.3, respectively, we chose to use an equimolar dose of each compound in the MTT assays. […] Prior reports established that phosphorylation of H2AX at serine 139 (γ-H2AX) is involved in DNA damage repair and apoptotic signaling by ATM/ATR and JNKs, respectively. Next, the MDA-MB-468, HeLa, and the kidney cancer UOK 262 cells were treated with a 10 μM dose of the CFM-4.16 or Adriamycin for various time periods. The cell lysates from the control, untreated, and treated cells were analyzed by WB for expression of CARP-1, phospho-JNK1/2, phospho-H2AX, and poly ADP ribose polymerase (PARP) proteins. […] The H2AX activation is also indicative of DNA damage and involves pro-apoptotic JNKs. Our data in Figure 1C and Figure S1B,C (Supplementary Materials) also show activation of JNKs; however, a robust JNK activation is co-incident with H2AX phosphorylation following treatments with Adriamycin or CFM-4.16.
Figure 8 Ectopic expression of TAT-CARP-1 (636–650) peptide results in enhanced viabilities of Adriamycin-treated cells. MDA-MB-468 (A) or HeLa (B) cells were pre-incubated with 300 μg/mL indicated peptides for 72 h, followed by treatments with the noted dose and time of Adriamycin. Determination of viable/live cells was carried out using an MTT assay as described in Section 2. The bar charts in panels A and B represent means of three and two independent experiments, respectively; bars, SE. (C) Indicated cells were either pre-incubated with 6 μg/mL indicated peptides for 72 h or not (Control), followed by treatments with Adriamycin as noted. Cells were then processed for immunofluorescence staining for TAT-CARP-1 peptide (red), γH2AX (green), and DAPI (blue) as detailed in Section 2 and Figure S3 (Supplementary Materials). Insets in C show enlarged areas of respective photomicrographs to indicate presence of TAT-CARP-1 peptide and γH2AX in respective columns. The insets in the top and middle rows of the merge column show co-localization of TAT-CARP-1 peptide, and γH2AX (magnification: 250×).
Figure S7. Disruption of H2AX interaction with CARP-1 results in enhanced viabilities of CFM-4, CFM-4.16, or Adriamycin-treated cells in part due to reduced γH2AX and apoptosis. (A,B,C) Indicated HeLa cell lines were treated with DMSO (Control), noted dose and time of Adriamycin, CFM-4, or CFM-4.16 compounds. Determination of viable/live cells was carried out by MTT assay as in methods. The columns in bar charts in panels A, B, C represent means of three independent […]
experiments; bars, SE. […]

[2] = system: MDA-MB-468 cells; assay: MTT cell viability/growth inhibition, MDA-MB-468; type: cell-based, human; settings: for growth inhibition of EGFP-CARP-1 / EGFP-H2AX (1–35)-expressing cells: MDA-MB-468 sublines vs EGFP-expressing counterparts; for cell viability: 10 μM, MDA-MB-468, MTT, mean of three independent experiments
Method: as §1, §2, §3
Figure 7 Disruption of H2AX interaction with CARP-1 results in enhanced viabilities of CFM-4-, CFM-4.16-, or Adriamycin-treated cells in part due to reduced apoptosis. (A,C,D) Indicated MDA-MB-468 cell lines were treated with DMSO (Control), or with the noted dose and time of Adriamycin, CFM-4, or CFM-4.16 compounds. Determination of viable/live cells was carried out by MTT assay as described in Section 2. (B,E,F) Cell lysates derived from vehicle DMSO (Control), or CFM-4-, CFM-4.16-, or Adriamycin-treated cells were added to the wells that had immobilized fluorogenic substrates of noted caspases. The fluorescence released from the activated caspase-dependent cleavage of respective substrate was detected by a plate reader at the excitation and emission wavelengths of 380 nm and 460 nm, respectively, as detailed in Section 2. The columns in bar charts in panels A, C, D and B, […] represent means of three and two independent experiments, respectively; bars, SE. For panels C and D, * p < 0.05, **p < 0.01 and *** p ≤ 0.001 relative to the respective EGFP vector subline. For panels E and F, *** p ≤ 0.05 relative to the respective EGFP vector subline.
Figure 8 Ectopic expression of TAT-CARP-1 (636–650) peptide results in enhanced viabilities of Adriamycin-treated cells. MDA-MB-468 (A) or HeLa (B) cells were pre-incubated with 300 μg/mL indicated peptides for 72 h, followed by treatments with the noted dose and time of Adriamycin. Determination of viable/live cells was carried out using an MTT assay as described in Section 2. […]

## EGFP-CARP-1 (636–650): EGFP-tagged fusion protein stably expressed in MDA-MB-468 and HeLa sublines (PKTMKVNDLRKELES; also: EGFP fusion kept, end not given here)
[1]; mean of three experiments
  growth inhibition of EGFP-CARP-1 / EGFP-H2AX (1–35)-expressing cells: resistant to inhibition by CFM-4.16 or ADR
[2]; MTT, mean of three experiments
  growth inhibition of EGFP-CARP-1 / EGFP-H2AX (1–35)-expressing cells: resistant to inhibition by CFM-4.16 or ADR

## EGFP-H2AX (1–35): EGFP-tagged fusion protein stably expressed in MDA-MB-468 and HeLa sublines (MSGRGKTGGKARAKAKSRSSRAGLQFPVGRVHRLL; also: EGFP fusion, end not given here; UniProt P16104 1-35, looked up, fragment)
[1]; mean of three experiments
  growth inhibition of EGFP-CARP-1 / EGFP-H2AX (1–35)-expressing cells: resistant to inhibition by CFM-4.16 or ADR
[2]; MTT, mean of three experiments
  growth inhibition of EGFP-CARP-1 / EGFP-H2AX (1–35)-expressing cells: resistant to inhibition by CFM-4.16 or ADR

## COc1cccc2c1C(=O)c1c(O)c3c(c(O)c1C2=O)C[C@@](O)(C(=O)CO)C[C@@H]3O[C@H]1C[C@H](N)[C@H](O)[C@H](C)O1 [Adriamycin, doxorubicin, reference compound]
[1]
  cell viability: inhibited viabilities of both the cell lines in a time-dependent manner
[1]; HeLa CARP-1 (Δ600–650) vs WT CARP-1-expressing counterparts, mean of three experiments
  growth inhibition of CARP-1 (Δ600–650)-expressing cells: resistant to inhibition by CFM-4 or ADR
[1]; mean of three experiments
  growth inhibition of EGFP-CARP-1 / EGFP-H2AX (1–35)-expressing cells: resistant to inhibition by CFM-4.16 or ADR
[2]; 10 μM dose, MDA-MB-468, MTT dose-response, Figure S1A
  cell-growth inhibition: robust cell-growth inhibition
[2]
  cell viability: inhibited viabilities of both the cell lines in a time-dependent manner
[2]; MDA-MB-468 CARP-1 (Δ600–650) vs WT CARP-1-expressing counterparts, MTT, mean of three experiments
  growth inhibition of CARP-1 (Δ600–650)-expressing cells: resistant to inhibition by CFM-4 or ADR
[2]; MTT, mean of three experiments
  growth inhibition of EGFP-CARP-1 / EGFP-H2AX (1–35)-expressing cells: resistant to inhibition by CFM-4.16 or ADR

## His-TAT-HA-CARP-1 (636–650): His-TAT-HA-tagged CARP-1 (636–650) peptide, >95% purity, commercially synthesized ({His-TAT-HA}-PKTMKVNDLRKELES; reading uncertain; UniProt Q8IX12 636-650, looked up, fragment)
[1]; HeLa pre-incubated with 300 μg/mL peptide, 72 h, then Adriamycin, vs EGFP, mean of two experiments
  viability of Adriamycin-treated cells: moderate, statistically significant increase in viabilities
[2]; MDA-MB-468 pre-incubated with 300 μg/mL peptide, 72 h, then Adriamycin, vs EGFP, MTT, mean of three experiments
  viability of Adriamycin-treated cells: moderate, statistically significant increase in viabilities
[2]; cancer cells, abstract
  abrogation of Adriamycin-induced growth inhibition: moderate, statistically significant abrogation of Adriamycin-induced growth inhibition

## O=C1N(Cc2ccccc2Cl)c2ccccc2C12NN=C(c1cccc(Cl)c1)S2 (stereo not drawn) [CFM-4.16]
[1]
  cell viability: inhibited viabilities of both the cell lines in a time-dependent manner
[1]; mean of three experiments
  growth inhibition of EGFP-CARP-1 / EGFP-H2AX (1–35)-expressing cells: resistant to inhibition by CFM-4.16 or ADR
[2]
  cell viability: inhibited viabilities of both the cell lines in a time-dependent manner
[2]; MTT, mean of three experiments
  growth inhibition of EGFP-CARP-1 / EGFP-H2AX (1–35)-expressing cells: resistant to inhibition by CFM-4.16 or ADR
